{"source": "patent US6087121A", "about": "“Chemiluminescent detection of heme proteins in biological samples” (Mayo Foundation for Medical Education and Research, priority 1999, dated 2000)", "key": {"Hb [1]": {"test_system": "Hb", "assay": "S/N ratios of different chemiluminescent substrates with Hb", "format": "biochemical, human", "experimental": "(§1) Centricon ultrafiltration filters were obtained from Amicon (Daven, Mass.). Polystyrene tubes (5.0 mL volume, 75×12 mm) used for the assay were manufactured by Sarstedt (Arlington Heights, Ill.). The chemiluminescent substrate, 7-dimethylamino-naphthalene-1,2-dicarbonic acid-hydrazide (7-DNH) was purchased from Boehringer Mannheim (Indianapolis, Ind.). PS-1 acridan substrate (solution A and solution B) was obtained from Lumigen Inc. (Southfield, Mich.). […] Tween-20 and Sodium Chloride were purchased from Fisher Scientific (Fair Lawn, N.J.). General laboratory chemicals such as, boric acid, sodium acetate, Trizma base, HEPES, hydrogen peroxide (H2 O2) solution (30.0%), human hemoglobin, catalase, 6-amino-2,3-dihydro-1,4-phthallazinedione (4-aminophthalhydrazide), N-(4-Aminobutyl)-N-ethyl-isoluminol, Triton X-100, (3-[3-cholamidopropyl)dimethylammonio]-1-propanesulfonate) (CHAPS), hydrogen disulfite, methimazole, ofloxacin, ascorbic acid, ammonium chloride, EDTA, Hb, bilirubin, and lactoperoxidase (LPO) were purchased from Sigma Chemical Company (St. Louis, Mo.). Human heart myoglobin and myeloperoxidase were obtained from Calbiochem (La Jolla, Calif.) Thyroid peroxidase (TPO) was purchased from O.E.M. Concepts, Inc. (Toms River, N.J.). Eosinophil peroxidase was provided by Dr. Greipp (Mayo Clinic). Fresh EDTA anticoagulated blood was collected from donors showing no signs of sickness and washed with physiological saline to isolate RBC.\n(§2) Fresh urine specimens were obtained in routine commercial collection vessels. The specimens were, either, analyzed immediately or stored at 4° C. until analysis. The urine samples were prepared for analysis by adding CTAC to produce a 0.1% solution, unless otherwise noted, in order to lyse the erythrocytes, thereby releasing hemoglobin. The assays were performed in a 75×12 mm polystyrene tube. The assay solutions were prepared by adding to each tube 294 μL of high ionic strength buffer, 5.0 μL of the prepared urine samples or standards, and […] of substrate (0.4 mM solution of 7-DNH), unless otherwise noted. […] The standard curve was obtained by plotting chemiluminescence emission in Relative Light Units (RLU) versus Hb concentration (μg/mL) or number of RBCs (#RBC/high power field (hpf)). Cell counts were determined with the Yellow Iris® instrument and confirmed by a manual hemocytometer count.\n(§3) The substrate (7-DNH) and the ultrafiltered urine were prepared as described above. The kinetics of chemiluminescence was determined by monitoring the chemiluminescence signal over a 20 second time period following addition of the substrate (7-DNH) to ultrafiltered urine. Measurements were performed either in the presence or absence of Hb. Experiments performed in the absence of Hb provide background measurements in relative light units (RLU)."}, "Mb": {"test_system": "Mb", "assay": "S/N ratios of different chemiluminescent substrates with Mb", "format": "biochemical, human", "details": "signal integrated over first five seconds", "experimental": "as §1, §2\nas §3, with “Experiments performed in the absence of Hb provide background measurements in relative light units (RLU).” left out"}, "Hb [2]": {"test_system": "Hb", "assay": "Chemiluminescence emission kinetics of 7-DNH with Hb", "format": "biochemical, human", "details": "Hb in ultrafiltered urine, after H2O2", "experimental": "as §3"}, "leukocytes": {"test_system": "leukocytes", "assay": "Stability of leukocytes in urine with ofloxacin", "format": "cell-based", "details": "100 μg/ml ofloxacin, 4° C.", "experimental": "Intra- and inter-assay imprecision was performed for MPO standards, WBC standards and 3 urine samples. Intra- and inter-assay imprecision tests were performed as described for the Hb assay in Example 7. The effect of time on the stability of enzyme activity in the leukocytes was examined. The effect of adding a quinoline antimicrobial agent, ofloxacin, was also studied with respect to its stabilization of the leukocytes.\nStability of leukocytes in the urine over time was improved by storing the urine samples at 4° C. The addition of 100 μg/ml of ofloxacin kept the leukocytes intact up to 20 hours later when the urines were maintained at 4° C. (FIG. 14)."}, "MPO [3]": {"target": "T1, MPO (Homo sapiens, UniProt P05164)", "T1 sequence (P05164 49-745)": "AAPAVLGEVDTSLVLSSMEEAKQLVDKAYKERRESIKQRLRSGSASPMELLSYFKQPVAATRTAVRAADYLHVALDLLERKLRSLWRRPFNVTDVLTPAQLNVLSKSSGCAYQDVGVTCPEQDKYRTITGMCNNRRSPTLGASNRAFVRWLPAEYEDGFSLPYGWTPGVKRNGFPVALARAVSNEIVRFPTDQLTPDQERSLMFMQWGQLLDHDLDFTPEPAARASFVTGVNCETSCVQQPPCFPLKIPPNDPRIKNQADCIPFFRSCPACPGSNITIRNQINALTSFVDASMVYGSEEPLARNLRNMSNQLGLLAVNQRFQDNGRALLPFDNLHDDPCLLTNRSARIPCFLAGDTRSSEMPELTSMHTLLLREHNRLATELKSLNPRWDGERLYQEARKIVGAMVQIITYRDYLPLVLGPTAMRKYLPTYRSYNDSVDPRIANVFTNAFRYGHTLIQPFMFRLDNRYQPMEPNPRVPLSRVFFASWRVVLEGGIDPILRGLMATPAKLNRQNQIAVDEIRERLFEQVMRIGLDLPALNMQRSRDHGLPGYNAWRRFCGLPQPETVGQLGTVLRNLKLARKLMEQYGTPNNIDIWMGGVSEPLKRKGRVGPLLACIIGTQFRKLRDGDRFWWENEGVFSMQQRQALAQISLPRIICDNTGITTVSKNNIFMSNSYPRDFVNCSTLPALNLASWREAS", "assay": "Effects of potential interfering substances in WBC (MPO, PS-1) assay", "format": "biochemical", "details": "level giving signal equal to 5 WBC/high power field; highest tested: hemoglobin 250, myoglobin 200 μg/mL", "experimental": "Urine samples were diluted 1:4 into distilled water to minimize inhibitory effects observed with hyperosmolal urines. Two μL of diluted urine were added to 12×75 mm polystyrene test tube containing 50 μL of the PS-1 solution. The tubes were incubated at 37° C. for 5 minutes. MPO activity was determined by chemiluminescence emission using a Turner TD-20e luminometer maintained at 37° C. Leukocyte counting was performed manually by using a hemacytometer chamber (Kova Glasstic slide, Hycor, Irvine, Calif.) on each urine sample to determine the number of cells/mL.\nSeveral possible interfering substances were added to urine and tested for inhibitory effects. Several common medications were also tested for potential inhibitory effects. […] Hb at concentrations of >10 μg/mL and Mb at concentrations >2 μg/mL were detected by the PS-1 substrate as the chemiluminescence emission was above the normal urine background. Samples grossly populated with bacteria caused slight inhibition of the MPO activity. Urine samples may contain many epithelial cells, casts, crystals, and numerous artifacts but none of these appear to interfere with the chemiluminescence emission from MPO."}, "Hb [4]": {"test_system": "Hb", "assay": "Performance characteristics of Hb assay (precision, linearity, recovery, stability)", "set-up": "species or system human", "details": "with detergent and substrate", "experimental": "Ultrafiltered urine was prepared from a pool of fresh urine specimens by ultrafiltration through Centriprep-10 at 3,000×g in a Beckman J2-HC centrifuge (Beckman Instruments, Calif.). This treatment separates all biomolecules with molecular weight greater than 10,000 daltons so that the ultrafiltered urine is devoid of Hemoglobin (Hb) and Myoglobin (Mb). Stock standards were prepared with the ultrafiltrate containing known quantities of, either purified Hb or washed, packed RBCS. A cell count of the stock RBC standard was determined by the Yellow IRIS® Automated Imaging System (Independent Research Imaging Systems, Chatsworth, Calif.). Cells in urine are imaged under laminar flow conditions. Up to 80 images of cells are captured using a high speed charged-coupled device camera. Cell images are then identified and quantified. […] All chemiluminescence measurements were determined using a Berthold AutoLumat, LB 953 (EG&G Berthold, Aliquippa, Pa.).\nFresh urine specimens were obtained in routine commercial collection vessels. The specimens were, either, analyzed immediately or stored at 4° C. until analysis. […] The emission of light was measured over five seconds following automatic injection of 300 μL of 5% hydrogen peroxide (pH 3.25). […] Cell counts were determined with the Yellow Iris® instrument and confirmed by a manual hemocytometer count. […]"}, "MPO [5]": {"target": "T1, MPO", "assay": "Effects of potential interfering substances in WBC (MPO, PS-1) assay", "format": "biochemical", "details": "Hb <10 μg/mL"}, "RBC": {"test_system": "RBC", "assay": "Effectiveness of lysing agents in RBC assay", "format": "cell-based, human", "details": "saponin 0.2 mg/mL, 30 second time period; mellitin 0.85 mg/mL; CTAC 0.1%", "experimental": "as §2"}}}
{"molecule": "CN(C)c1ccc2ccc3c(=O)[nH][nH]c(=O)c3c2c1", "note": "[7-DNH, 7-dimethylamino-naphthalene-1,2-dicarbonic acid-hydrazide]", "values": [{"measurement": "sensitivity compared to other substrates tested", "setting": "Hb [1]; by signal to noise ratio", "result": "most sensitive"}, {"measurement": "S/N for Hb", "setting": "Hb [1]; signal integrated over first five seconds", "result": 589}, {"measurement": "S/N for Mb", "setting": "Mb", "result": 316}, {"measurement": "time of peak emission", "setting": "Hb [2]", "result": 2, "unit": "s"}]}
{"molecule": "CC1COc2c(N3CCN(C)CC3)c(F)cc3c(=O)c(C(=O)O)cn1c23", "note": "(stereo not drawn) [ofloxacin]", "values": [{"measurement": "leukocytes kept intact in urine", "setting": "leukocytes", "result": "up to 20 hours"}]}
{"molecule": "Hemoglobin: human hemoglobin purchased from Sigma", "values": [{"measurement": "Interference", "setting": "MPO [3]", "result": "> 10", "unit": "µg/mL"}, {"measurement": "stability of Hb in the samples during the reaction", "setting": "Hb [4]", "result": "up to 25 minutes"}, {"measurement": "interference with PS-1 assay", "setting": "MPO [5]", "result": "did not interfere"}]}
{"molecule": "Mellitin: lysing agent", "values": [{"measurement": "effectiveness as lysing agent", "setting": "RBC", "result": "nearly as effective as 0.1% CTAC"}]}
